Measurements reported in patent US5041579A, “Platinum complexes and uses therewith” (Ajinomoto Co., Inc., priority 1987, dated 1991).

Assays:
Colon 38 cells [1] = experiment: Anti-tumor activity testing 4: tumor-growth inhibition of subcutaneous Colon 38, intravenous injection; assay type: in vivo, Female BDF mice; conditions: 21 days after transplantation
Source text: Female BDF mice of 5-week age were used as test animals (eight head for each group).

[2] = cited from earlier work
[3] = tested on: cisplatin-resistant L1210 cells; experiment: Growth inhibition of cisplatin-resistant L1210 cells ([3H]-thymidine uptake); assay type: cell-based, mouse; conditions: for IC50: 46 h incubation plus 2 h with [3H]-thymidine, 37° C.; for Degree of Resistance: ratio of IC50 for cisplatin-resistant L1210 cells to that for L1210 cells, 2880 min
Experimental: (§1) L1210 cells and cisplatin-resistant L1210 cells under subcultivation were incubated in RPMI1640 medium containing 10% fetal bovine serum at 37° C. for 46 hours in an atmosphere containing 5% carbon dioxide. [^3 H]-thymidine was added to the grown cells, and incubation was continued for an additional two hours. The growth inhibition rate of a drug was calculated from the amounts of [^3 H]-thymidine taken into the cells in the presence and absence of that drug, and the 50% growth inhibition concentration (IC50) was determined from the graph of inhibition rate plotted against drug concentration. The degree of drug resistance was calculated from the ratio of IC50 for cisplatin-resistant L1210 cells to that for L1210 cells.

L1210 cells [4] = experiment: Growth inhibition of L1210 cells ([3H]-thymidine uptake); assay type: cell-based, mouse; conditions: 46 h incubation plus 2 h with [3H]-thymidine, 37° C.
Experimental: as §1

Colon 38 cells [5] = experiment: Anti-tumor activity testing 3: tumor-growth inhibition of subcutaneous Colon 38, intraperitoneal injection; assay type: in vivo, female BDF mice; conditions: days 1, 8 and 15, 21 days after transplantation
Experimental: female BDF mice of 5-week age were used as test animals (five head for each group).
Colon 38 cells (40 mg) were subcutaneously transplanted to each of the test animals at the haunch, each of the Pt(II) complexes listed in Table 3 was then injected intraperitoneally 1 day, 8 days and 15 days after transplantation (a total of three times), and the tumor-growth inhibition rate was measured for each test group 21 days after transplantation.

Sarcoma-180 cells = experiment: Anti-tumor activity testing 1: life-prolonging rate in mice transplanted intraperitoneally with Sarcoma-180 cells; assay type: in vivo, Female ICR/CRJ mice; conditions: day after transplantation
Experimental: Female ICR/CRJ mice of 5-week age were used as test animals (five head for each group).
Sarcoma-180 cells (1×10^6) were intraperitoneally transplanted to each of the test animals, each of the Pt(II) complexes listed in Table 1 was then injected intraperitoneally on the next day, and the life-prolonging rate was measured for each test group. Physiologically saline was used as the solvent of injections.

L1210 cells [6] = experiment: Anti-tumor activity testing 2: life-prolonging rate in mice transplanted intraperitoneally with L1210 cells; assay type: in vivo, Female BDF1 mice; conditions: days 1, 5 and 9
Experimental: Female BDF1 mice of 5-week age were used as test animals (five head for each group).
L1210 cells (1×10^5) were intraperitoneally transplanted to each of the test animals, each of the Pt(II) complexes listed in Table 2 was then injected intraperitoneally one day, five days and nine days after transplantation (a total of three times), and the life-prolonging rate was measured for each test group. Physiologically saline was used as the solvent of injections.

[7] = Solubility in physiological saline; assay type: physicochemical

SMILES	Tumor-growth Inhibition Rate (Colon 38 cells [1]; 2 mg/kg × 6, i.v.) [%]	Tumor-growth Inhibition Rate (Colon 38 cells [1]; 4 mg/kg × 6, i.v.) [%]	Tumor-growth Inhibition Rate (Colon 38 cells [1]; 8 mg/kg × 6, i.v.)	Tumor-growth Inhibition Rate (Colon 38 cells [1]; 16 mg/kg × 6, i.v.)	IC50 [3] [µM]	Degree of Resistance [3]	IC50 (L1210 cells [4]) [µM]	Tumor-growth Inhibition Rate (Colon 38 cells [5]; 20.0 μmol/Kg × 3, i.p.) [%]	Tumor-growth Inhibition Rate (Colon 38 cells [5]; 30.0 μmol/Kg × 3, i.p.) [%]	Tumor-growth Inhibition Rate (Colon 38 cells [5]; 45.0 μmol/Kg × 3, i.p.) [%]	Life-prolonging Rate (Sarcoma-180 cells; 4.0 mg/Kg × 1, i.p.) [%]	Life-prolonging Rate (Sarcoma-180 cells; 8.0 mg/Kg × 1, i.p.) [%]	Life-prolonging Rate (Sarcoma-180 cells; 16.0 mg/Kg × 1, i.p.) [%]	Life-prolonging Rate (L1210 cells [6]; 7.5 μmol/Kg × 3, i.p.) [%]	Life-prolonging Rate (L1210 cells [6]; 15.0 μmol/Kg × 3, i.p.) [%]	Life-prolonging Rate (L1210 cells [6]; 30.0 μmol/Kg × 3, i.p.) [%]	further results
NC1CCCC(O)C1N.O=S1(=O)[O][Pt][O]1 (single isomer, unassigned; (+)) [Compound No. 8, (+)-Cis-sulfato-(1/2,3)-2,3-diaminocyclohexanol-platinum(II)]	34	35	61%	91%													
NC1CCCC(O)C1N.O=S1(=O)[O][Pt][O]1 (single isomer, unassigned; (-)) [Compound No. 9]	40	88	88%	toxic													
N.N.[Cl][Pt][Cl] [Cisplatin, cis-dichlorodiamineplatinum(II), reference compound]	58	84	toxic		10.5	10.5	1										anti-tumor activity (in words) ([2]; Nature, 222, 385 (1969)): high anti-tumor activity; side effects (in words) ([2]; clinical use): severe side effects, such as toxicity to the kidney, nausea, emesis and bradyacusia; Tumor-growth Inhibition Rate (Colon 38 cells [1]; 1 mg/kg × 6, i.v.): 19%
O=C1[O][Pt]2([NH]C3CCCC(O)C3[NH]2)[O]C1=O (stereo not drawn) [Compound No. 1, Cis-oxalato-(1/2,3)-2,3-diamino-1-cyclohexanolplatinum(II)]					6.6	1.9	3.5	24	16	45	189	218	266	115	115	132	
NC1CCCC(O)C1N.O=S(=O)([O-])[O-].[Pt+2] (stereo not drawn) [Compound No. 2, Cis-sulfato-(1/2,3)-2,3-diamino-1-cyclohexanolplatinum(II)]	22	41	90%	toxic	3.2	1.9	1.7	47	78	97	295	532	534	136	134	151	Solubility [7]: > 20.0 mg/mL
O=C1C[O][Pt]2([NH]C3CCCC(O)C3[NH]2)[O]1 (stereo not drawn) [Compound No. 3, Cis-glycolato-(1/2,3)-2,3-diamino-1-cyclohexanolplatinum(II)]					2.5	1.9	1.3	70	72	96	212	182	252	116	122	147	
NC1CCCC(N)C1.O=C1[O][Pt][O]C1=O (stereo not drawn) [Compound No. 4, Cis-oxalato-1,3-diaminocyclohexaneplatinum(II)]					5	2.1	2.4	54	77	88	248	258	364	127	222	245	
O=S1(=O)[O][Pt]2([NH]C3CCCC(C3)[NH]2)[O]1 [Compound No. 5, Cis-sulfato-1,3-diaminocyclohexaneplatinum(II)]					7.9	2.5	3.1	36	56	56	202	187	236	121	189	155	
NC1CCCC(N)C1.O=C1[O][Pt][O]C(=O)C12CCC2 [Compound No. 6, Cis-cyclobutane-1,1-dicarboxylato-1,3-diaminocyclohexaneplatinum(II)]													126			98	Life-prolonging Rate (Sarcoma-180 cells; 32.0 mg/Kg × 1, i.p.): 106%; Life-prolonging Rate (L1210 cells [6]; 60.0 μmol/Kg × 3, i.p.): 104%
O=S1(=O)[O][Pt]2([NH]C3CC([NH]2)C(O)C(O)C3O)[O]1 (stereo not drawn) [Compound No. 7, Cis-sulfato-2-deoxystreptamineplatinum(II)]												126	120		102	109	Life-prolonging Rate (Sarcoma-180 cells; 32.0 mg/Kg × 1, i.p.): 241%; Life-prolonging Rate (L1210 cells [6]; 60.0 μmol/Kg × 3, i.p.): 119%
